Measurements published in US20160002248A1, “GLS1 INHIBITORS FOR TREATING DISEASE” (Board of Regents, The University of Texas System, priority 2014, published 2016).

How the values were obtained:
[1] = biological target: T1, purified recombinant human GAC (GLS1) (Homo sapiens, UniProt O94925); experiment: GLS1 Enzymatic Activity Assay (dual-coupled enzymatic assay); format: biochemical
T1 sequence (O94925 55-598 isoform O94925-3 limits assumed): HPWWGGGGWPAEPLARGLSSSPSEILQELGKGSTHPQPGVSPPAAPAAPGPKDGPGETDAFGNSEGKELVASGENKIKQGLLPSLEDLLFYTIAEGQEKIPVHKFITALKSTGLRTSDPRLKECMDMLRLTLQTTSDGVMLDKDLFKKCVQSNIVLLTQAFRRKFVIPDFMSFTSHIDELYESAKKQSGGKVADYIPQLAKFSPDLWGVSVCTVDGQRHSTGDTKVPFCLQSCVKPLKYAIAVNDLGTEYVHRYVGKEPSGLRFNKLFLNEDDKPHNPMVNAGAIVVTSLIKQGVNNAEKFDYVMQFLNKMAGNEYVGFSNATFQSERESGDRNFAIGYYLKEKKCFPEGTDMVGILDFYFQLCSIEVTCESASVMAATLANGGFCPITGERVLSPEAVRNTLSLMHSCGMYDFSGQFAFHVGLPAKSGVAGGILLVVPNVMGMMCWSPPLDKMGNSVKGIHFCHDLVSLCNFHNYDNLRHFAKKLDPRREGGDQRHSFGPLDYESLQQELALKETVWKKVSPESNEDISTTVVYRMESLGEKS
Protocol: GLS1 Enzymatic Activity Assay
The inhibition of purified recombinant human GAC by varying concentrations of inhibitors is assessed via a dual-coupled enzymatic assay. The glutamate produced by the glutaminase reaction is used by glutamate oxidase to produce α-ketoglutarate, ammonia, and hydrogen peroxide, with this hydrogen peroxide subsequently being used by horseradish peroxidase to produce resorufin in the presence of Amplex UltraRed. The assay buffer consisted of 50 mM Hepes (pH 7.4), 0.25 mM EDTA and 0.1 mM Triton X-100. GAC was incubated with potassium phosphate (10 minutes at room temperature) prior to incubation with inhibitor (10 minutes at room temperature). The final reaction conditions were as follows: 2 nM GAC, 50 mM potassium phosphate, 100 mU/mL glutamate oxidase (Sigma), 1 mM glutamine (Sigma), 100 mU/mL horseradish peroxidase (Sigma), 75 μM Amplex UltraRed (Life Technologies), and 1% (v/v) DMSO. The production of resorufin was monitored on a Perkin Elmer Envision plate reader (excitation 530 nm, emission 590 nm) either in a kinetics or endpoint mode (at 20 minutes). IC50 values were calculated using a four-parameter logistic curve fit.

A549 cells = experiment: Proliferation Assay (A549 cell viability, Cell Titer Fluor); format: cell-based; details: Homo sapiens, 72 hours
Protocol: A549 cells were routinely maintained in RPMI 1640 media (Gibco catalog number 11875-093) supplemented with 10% dialyzed fetal bovine serum using a humidified incubator (37° C., 5% CO2 and ambient O2). In preparation for the viability assay, cells were inoculated into 384-well black CulturPlates (Perkin Elmer) at a density of 1000 cells/well in a volume of 40 uL. Following a 24-hour incubation at 37° C., 5% CO2 and ambient O2, cells were treated with compound (10 uL) in a final DMSO concentration of 0.5% (v/v). The microplates were then incubated for 72 hours (37° C., 5% CO2 and ambient O2). Cell Titer Fluor (Promega) was subsequently added (10 uL of 6× reagent) and mixed for 15 minutes at room temperature. The plates were then incubated for 30 minutes (37° C., 5% CO2 and ambient O2) and fluorescence was subsequently read on the Perkin Elmer Envision plate reader. EC50 values were calculated using a four-parameter logistic curve fit.

Row | Compound | IC50 [1] [nM] | EC50 (A549 cells) [nM]
1 | O=C(NCc1ccccn1)c1cn(CCCCc2cc3c(-c4ccccc4)c[nH]c3nn2)nn1 [Example 20, 1-(4-(5-phenyl-7H-pyrrolo[2,3-c]pyridazin-3-yl)butyl)-N-(pyridin-2-ylmethyl)-1H-1,2,3-triazole-4-carboxamide] | 500 to 5000 | > 5000
2 | O=C(NCc1ccccn1)c1cn(CCCCc2cc3cc(C4(O)COC4)[nH]c3nn2)nn1 [Example 21, 1-(4-(6-(3-hydroxyoxetan-3-yl)-7H-pyrrolo[2,3-c]pyridazin-3-yl)butyl)-N-(pyridin-2-ylmethyl)-1H-1,2,3-triazole-4-carboxamide] | 100 to 500 | > 5000
3 | O=C(Cc1ccccc1)Nc1nnc(CCCCc2cnc3[nH]ccc3c2)s1 [Example 24, N-(5-(4-(1H-pyrrolo[2,3-b]pyridin-5-yl)butyl)-1,3,4-thiadiazol-2-yl)-2-phenylacetamide] | 100 to 500 | > 5000
4 | O=C(Cc1ccccn1)Nc1nnc(CCCCc2cc3cc(Cc4ccccc4)[nH]c3nn2)s1 [Example 26, N-[5-(4-{6-benzyl-7H-pyrrolo[2,3-c]pyridazin-3-yl}butyl)-1,3,4-thiadiazol-2-yl]-2-(pyridin-2-yl)acetamide] | < 100 | 100 to 500
5 | O=C(NCc1cccc(OC(F)(F)F)c1)c1cn(CCCCc2cc3cc[nH]c3nn2)nn1 [Example 27, 1-(4-{7H-pyrrolo[2,3-c]pyridazin-3-yl}butyl)-N-{[3-(trifluoromethoxy)phenyl]methyl}-1H-1,2,3-triazole-4-carboxamide] | 100 to 500 | 500 to 5000
6 | CC(C)Cc1cc2cc(CCCCn3cc(C(=O)NCc4ccccn4)nn3)nnc2[nH]1 [Example 28, 1-{4-[6-(2-methylpropyl)-7H-pyrrolo[2,3-c]pyridazin-3-yl]butyl}-N-(pyridin-2-ylmethyl)-1H-1,2,3-triazole-4-carboxamide] | 500 to 5000 | 100 to 500
7 | O=C(Cc1ccccc1)Nc1ccn(CCCCc2cc3cc(C4CC4)[nH]c3nn2)c(=O)c1 [Example 29, N-[1-(4-{6-cyclopropyl-7H-pyrrolo[2,3-c]pyridazin-3-yl}butyl)-2-oxo-1,2-dihydropyridin-4-yl]-2-phenylacetamide] | 100 to 500 | 500 to 5000
8 | CC(C)(C)c1cc2cc(CCCCn3ccc(NC(=O)Cc4ccccc4)cc3=O)nnc2[nH]1 [Example 30, N-[1-(4-{6-tert-butyl-7H-pynolo[2,3-c]pyridazin-3-yl}butyl)-2-oxo-1,2-dihydropyridin-4-yl]-2-phenylacetamide] | 100 to 500 | 500 to 5000
9 | O=C(NCc1cccc(OC(F)(F)F)c1)c1cn(CCCCc2cc3cc(C4CC4)[nH]c3nn2)nn1 [Example 32, 1-(4-{6-cyclopropyl-7H-pyrrolo[2,3-c]pyridazin-3-yl}butyl)-N-{[3-(trifluoromethoxy)phenyl]methyl}-1H-1,2,3-triazole-4-carboxamide] | < 100 | 100 to 500
10 | COc1cccc(CNC(=O)c2cn(CCCCc3cc4cc(C5CC5)[nH]c4nn3)nn2)n1 [Example 33, 1-(4-{6-cyclopropyl-7H-pyrrolo[2,3-c]pyridazin-3-yl}butyl)-N-[(6-methoxypyridin-2-yl)methyl]-1H-1,2,3-triazole-4-carboxamide] | 100 to 500 | 500 to 5000
11 | O=C(NCc1ccccn1)c1cn(CCCCc2cc3cc(Cc4ccccc4)[nH]c3nn2)nn1 [Example 34, 1-(4-{6-benzyl-7H-pyrrolo[2,3-c]pyridazin-3-yl}butyl)-N-(pyridin-2-ylmethyl)-1H-1,2,3-triazole-4-carboxamide] | < 100 | 500 to 5000
12 | Cc1ccc(CNC(=O)c2cn(CCCCc3cc4cc(C5CC5)[nH]c4nn3)nn2)cn1 [Example 35, 1-(4-{6-cyclopropyl-7H-pyrrolo[2,3-c]pyridazin-3-yl}butyl)-N-[(6-methylpyridin-3-yl)methyl]-1H-1,2,3-triazole-4-carboxamide] | < 100 | 100 to 500
